In patent publication US20230301993A1, “Low-Dose Ophthalmic Compositions and Methods” (priority 2020, published 2023):
Entries after “also recorded” stand apart in the source; their conditions may differ.

Key:
rabbit eye model [1] = assay: Pupillometry: effect of single topical ocular administration on pupillary diameter (miotic effect) in rabbit eye model; type: in vivo, Dutch Belted Rabbits
Method: The following examples were performed to determine which active pharmaceutical agent (API), alone or in combination, could effect upon topical administration an approximate 1-2 mm decrease in pupillary diameter with a desirable (e.g., about 4 h) duration of action. Unless stated otherwise, a rabbit animal model was used for the studies. Phentolamine was used as a positive control (comparator API) and caused an approximately 1 mm decrease in the pupil at 0.5% and 1% with a duration of more than 6 hours.
Study design: 3 Dutch Belted Rabbits (pigmented breed)/group received a single ocular administration of test articles (one drop per eye) at 3 concentrations (tested one week apart). After a 2-week rest period, combinations were tested. Ocular irritation was assessed using a modified Draize test. Intraocular pressure (IOP) was measured at baseline, 1 h, 4 h, 6 h and 24 hours. Pupillary Diameter was measured at baseline, 15 min, 1 h, 4 h and 6 h after dosing. Due to the variation in pupillary diameter and IOP between rabbits and between eyes within rabbits, the data for pupillary diameter and IOP were normalized and presented with error bars (SD). A change of 15% to 20% approximates a pupillary diameter change of 1 mm. […]

rabbit eye model [2] = assay: Effect of benzalkonium chloride on the miotic effect of carbachol; type: in vivo
Text: In still further experiments, the inventors investigated the effect of benzalkonium chloride on the miotic effect of carbachol. To that end, different concentrations of BAC were employed between 0.005% and 0.02% at carbachol concentrations between 0.025% and 0.075%, and the results are shown in FIGS. 6A-6C. […] As BAK is believed to increase permeability of the respective agents across the corneal tissue, addition of BAK at concentrations up to 0.05% may advantageously increase miotic effect at otherwise identical drug concentration. Thus, BAK may enhance the miotic action of brimonidine, rivastigmine, galantamine, and carbachol, which may in turn allow for reduced drug concentrations and/or increased miotic effect without unduly extending the duration of the miotic effect.

Compound: Brc1c(N=C2NCCN2)ccc2nccnc12.O=C(O)C(O)C(O)C(=O)O [Brimonidine, 5-Bromo-6-(2-imidazolidinylideneamino) quinoxaline L-tartrate]
- miotic effect on pupillary diameter (rabbit eye model [1]; at doses tested, rabbit): little to no effect
- miotic effect on pupillary diameter (rabbit eye model [1]; doses at or below 0.1%, rabbit (FIG. 2), L-tartrate): some miotic effect; also recorded: moderate effect
- miotic effect on pupillary diameter (rabbit eye model [1]; higher doses tested, at or above 0.2%, rabbit (FIG. 2)): little to no effect

Compound: Br.COc1ccc2c3c1O[C@H]1C[C@@H](O)C=C[C@@]31CCN(C)C2 [Galantamine, galantamine]
- decrease in pupil (rabbit eye model [1]; concentration of about 2%, alone, rabbit): 1-2 mm
- duration of reduction in pupillary diameter (lasted at least) (rabbit eye model [1]; high dose (2%), rabbit (FIG. 4A)): at least 1 h

Compound: Cc1ccc(N(CC2=NCCN2)c2cccc(O)c2)cc1 [Phentolamine]
- duration of reduction in pupillary diameter (rabbit eye model [1]; all doses, topical, rabbit (FIG. 1)): at least 6 h
- decrease in the pupil (rabbit eye model [1]; at 0.5% and 1%, topical, one drop per eye, rabbit): approximately 1 mm

Compound: CCN(C)C(=O)Oc1cccc(C(C)N(C)C)c1 (stereo not drawn) [Rivastigmine, N-ethyl-3-[1-dimethylamino)ethyl]-N-methylphenyl carbamate]
- decrease in pupil (rabbit eye model [1]; concentration of about 1%, alone, rabbit): 1 mm
- miotic effect on pupillary diameter (comparison in words) (rabbit eye model [1]; concentration of about 1%, alone, rabbit (FIG. 3A)): substantially similar to phentolamine

Compound: C[N+](C)(C)CCOC(N)=O [carbachol]
- duration of action (miotic effect) (rabbit eye model [1]; carbachol, even at lowest dose (about 0.075%), rabbit): 2 to 4 h
- miotic effect (potency in words) (rabbit eye model [1]; even at the lowest dose / low concentration of about 0.075%, rabbit (FIG. 5)): very potent

Compound: N-Alkyl-N-benzyl-N,N-dimethyl-ammonium chloride [BAC]
- effect of BAC on miotic effect of carbachol (rabbit eye model [2]; BAC 0.005%, at 1 hr, higher carbachol concentration (FIG. 6A)): some effect
- effect of BAC on miotic effect of carbachol (rabbit eye model [2]; BAC 0.005%, carbachol 0.025%-0.075% (FIG. 6A)): minimal effect
- effect of BAC on miotic effect of carbachol (rabbit eye model [2]; BAC 0.01%, carbachol 0.025%-0.075% (FIG. 6B)): somewhat more pronounced
- effect of BAC on miotic effect of carbachol (rabbit eye model [2]; BAC at least 0.02%, carbachol 0.025%-0.075% (FIG. 6C)): significant
